5 compounds from patent US8470819B2, “Benzimidazole and aza-benzimidazole carboxamides” (Merck Sharp & Dohme Corp., priority 2008, dated 2013) can be followed below.

T1 sequence (P25105 whole entry): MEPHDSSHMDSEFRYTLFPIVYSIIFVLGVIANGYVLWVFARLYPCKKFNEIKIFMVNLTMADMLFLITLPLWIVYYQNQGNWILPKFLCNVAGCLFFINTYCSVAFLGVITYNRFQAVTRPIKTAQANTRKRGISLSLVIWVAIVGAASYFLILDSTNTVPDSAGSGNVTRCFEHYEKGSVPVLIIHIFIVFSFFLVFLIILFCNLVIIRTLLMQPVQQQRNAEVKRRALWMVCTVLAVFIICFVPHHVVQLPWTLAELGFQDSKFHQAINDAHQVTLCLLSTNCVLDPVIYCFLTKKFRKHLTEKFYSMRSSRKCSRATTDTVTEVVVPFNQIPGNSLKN

The first experiment addresses T1, full-length human PAFR (Homo sapiens, UniProt P25105).
T1 construct: PAFR was derived from membranes from CHO cells over-expressing the full-length human PAFR; expressed in transfected cells; host or cells: CHO cells (membranes)
The experiment can be described thus: PAF Binding Assay. Particulars: 3H-PAF competition, membranes from CHO cells over-expressing human PAFR, SPA beads. The method, then: PAFR was derived from membranes from CHO cells over-expressing the full-length human PAFR. Supernatant from the cell homogenate pellet (3000×g) is pelleted (35000×g), and the resulting pellet is resuspended in a Tris HCl buffer (50 mM Iris HCl pH 7.4, 5 mM MgCl2, 30% glycerol) to afford a parent PAFR stock that is diluted in PAF binding buffer (50 mM HEPES pH 7.0, 10 mM MgCl2, 5 mM CaCl2, 5 mM D-(+)glucose, 0.25% fatty-acid free BSA) to afford a PAFR assay stock (120 μg/mL) prior to each use.
Binding buffer (48 μL) and competitor compound (i.e., the compound to be tested) in DMSO (2 μL) were added to a 96-well plate. Cold PAF C-18 (200 nM final concentration) was used to determine non-specific binding. 25000 cpm of ^3H-PAF (25 μL of a stock solution in PAF binding buffer) was added to all wells, and the plates sealed and shaken at rt for 5 min. PAFR assay stock (3 μg/well) was added, and the plate was sealed and shaken at rt for 2 h. SPA beads^1 (10 μL of a 25 mg/mL suspension in binding buffer) were added to all wells, and the plates were sealed and shaken for 30 min. The plates were centrifuged (1900 rpm for 5 min.), allowed to stand for 30 min. and read on a Microbeta TriLux counter.
Specific binding is defined as total binding minus non-specific binding. Total binding was the amount of ^3H-PAF bound to SPA beads in the absence of competitor; non-specific binding was ^3H-PAF bound in the presence of 30 μM Compound A.^2 The IC50 values were obtained by computer analysis of the experimental data.^3 Percent inhibition was calculated as 100−[(Sample-Non-specific bound)/(Total bound Non-specific bound)×100]
As usually defined, the IC50 is the concentration needed to halve the response being measured. Turning to `O=C(c1ccc2c(c1)nc(-c1ccc(OC(F)(F)F)cc1)n2C1CCC1)N1CCC(c2cccnc2)C1` (stereo not drawn) [Example 1Fr, 1-cyclobutyl-5-[(3-pyridin-3-ylpyrrolidin-1-yl)carbonyl]-2-[4-(trifluoromethoxy)phenyl]-1H-benzimidazole], the IC50 was determined as 9 nM.
The same measure, in the same setting: the figure for `CC(C)c1nc2cc(C(=O)N3CCC(c4cccnc4)C3)ccc2n1-c1ccc(OC(F)(F)F)cc1` (single isomer, unassigned) [Example 1c, 2-isopropyl-5-[(3-pyridin-3-ylpyrrolidin-1-yl)carbonyl]-1-[4-(trifluoromethoxy)phenyl]-1H-benzimidazole] is 11 nM; for `CC(C)n1c(-c2ccc(OC(F)(F)F)cc2)nc2cc(C(=O)N3CCC(c4cccnc4)C3)ccc21` (single isomer, unassigned) [Example 1Ar, 1-isopropyl-5-[(3-pyridin-3-ylpyrrolidin-1-yl)carbonyl]-2-[4-(trifluoromethoxy)phenyl]-1H-benzimidazole] it is 2 nM.
Same read-out and setting: the figure for `CC1(n2c(-c3ccc(OC(F)(F)F)cc3)nc3cc(C(=O)N4CCC(c5cccnc5)C4)ccc32)CC1` (stereo not drawn) [Example 1Gr, 1-(1-methylcyclopropyl)-5-[(3-pyridin-3-ylpyrrolidin-1-yl)carbonyl]-2-[4-(trifluoromethoxy)phenyl]-1H-benzimidazole] is 10 nM; for `CC(C)n1c(-c2ccc(OC(F)(F)F)cc2)nc2cc(C(=O)N3CCC(O)(c4cccnc4)C3)ccc21` (stereo not drawn) [Example 1Qa, 1-({1-isopropyl-2-[4-(trifluoromethoxy)phenyl]-1H-benzimidazol-5-yl}carbonyl)-3-pyridin-3-ylpyrrolidin-3-ol] it is 9 nM.

Staying with this experiment, now noted: comparison of the resolved enantiomers, in words.
Take `CC(C)n1c(-c2ccc(OC(F)(F)F)cc2)nc2cc(C(=O)N3CCC(c4cccnc4)C3)ccc21` (single isomer, unassigned) [Example 1Ar, 1-isopropyl-5-[(3-pyridin-3-ylpyrrolidin-1-yl)carbonyl]-2-[4-(trifluoromethoxy)phenyl]-1H-benzimidazole]: the “IC50 results in the PAF Binding Assay, slower vs faster eluting enantiomer” value was “faster eluting enantiomer was preferred”.
